The values below come from patent US20150011492A1, “ANTI-RESTENOSIS COMPOSITIONS AND METHODS” (WISCONSIN ALUMNI RESEARCH FOUNDATION, priority 2013, published 2015).

For one data set, the system named is human SMCs. Nature of the data set: CellTiter-Glo luminescent cell viability assay, SMCs. The format is cell-based. Conditions: 200 nM. As to the method: Freshly collected HuAoSMCs (passage 5) were counted ([…]) by Cellometer AutoT4 (Nexelon Bioscience), and dispensed using Microflo Select (BioTek) to a final density of 2700 cells/[…]/well in the SmGM-2 medium in a 96-well plate. After a 24 hour incubation to allow cell attachment, […] of DMSO (vehicle) or […] of resveratrol (a known SMC growth inhibitor) stock in DMSO was robotically transferred using Biomek FX (Beckman) from a resveratrol stock plate into cell culture (final […] resveratrol). DMSO and resveratrol were added into alternate columns of wells (8 wells per column). Cell growth/proliferation was monitored by reading fluorescence from the AlamarBlue® cell viability reagent (Invitrogen). See Antczak et al., J. Biomol. […] After incubation with resveratrol for 72 hours, AlamarBlue reagent was added using Matrix Hydra (Thermo-Fisher) and incubated with cells for another 24 hours, and fluorescence was then determined using a Safir2 plate reader (Tecan, excitation/fluorescence: 530 nm/590 nm, bandwidth: 15 nm). The data from 40 wells of vehicle and 40 wells of resveratrol treatments were analyzed for assessment of well-well consistency in the assay. […] It was determined that reading Alamar Blue fluorescence 24 hours after incubation reduced variance compared to reading after shorter incubation (e.g., 4 hours). […]
On the technique in general: In ATP-based viability assays light output follows the ATP content of the culture.

The next data set deals with human ECs. The data set is described as follows: CellTiter-Glo luminescent cell viability assay, ECs. The format is cell-based. Conditions: 200 nM. The source says: For human SMCs, cell densities ranging from about 1,000 cells per well to about 5,000 cells per well were aliquoted into 96-well plates and cultured in the SmGM-2 medium (Lonza CC-3182) with 5% serum.
This robust well-to-well consistency achieved by our experimental system is better reflected by a Z′ value of 0.63. […] See, e.g., Tomasini-Johansson et al., J. Intl. Soc. Matrix Biol. (2012); Zhang et al., J. Biomol. Screening 4:67-73 (1999); Patel et al., PloS One 7:e36594 (2012). In parallel experiments, a CellTiter-Glo® luminescent cell viability assay (Cat. #7570, Promega), which quantifies ATP levels in cell lysates, was evaluated as an additional and more sensitive orthologous assay for cell number. Sachsenmeier et al., PLoS One 17:993-8 (2012). Using the CellTiter-Glo® assay, Rapamycin which is used in drug-eluting stents at 200 nM produced >50% inhibition of both human SMCs and ECs with Z′ values of 0.56 to 0.75 respectively (FIG. 2). In addition, CellTiter-Glo® assays using resveratrol for both SMCs and ECs also produced high Z′ values (>0.7) (data not shown). Curve fitting was performed with the Prism software (GraphPad).

The test system of another data set is HuAoSMCs. The data set is described as follows: Dose response proliferation assay, HuAoSMCs (96-well plate). The format is cell-based, human. On the procedure:
FIGS. 5A-B present comparative dose responses of HuAoSMCs and HuAoECs for idarubicin (A) and resveratol (B).
Cryo-protected frozen HuAoSMCs and HuAoECs (Lonza, passage 3) were thawed and cultured in their respective media that are optimized for cell growth by the manufacturer. HuAoSMCs (“SMCs”) were grown in the SmGM-2 medium containing 5% FBS, and HuAoECs (“ECs”) in the EGM-2 medium containing 2% FBS in a humidified incubator at 37° C. with 5% CO2.

Data set [1] relates to primary human aortic endothelial cells (HuAoECs). The data set is described as follows: Counter-screen / dose response proliferation assay, HuAoECs. For orientation: The purpose of a counterscreen is to sort out artefacts and off-target activity.
Data set [2] deals with balloon-injured rat carotid arteries. The data set is described as follows: Rat carotid balloon angioplasty model, perivascular drug delivery in pluronic gel. The format is in vivo, Male Sprague-Dawley rats.
Data set [3] has the same test system. The description is as above. The format is in vivo, Male Sprague-Dawley rats. As to the method:
Balloon injury of the left common carotid artery was performed in Male Sprague-Dawley rats (300-350 g) according to the method described previously (Kundi et al., Cardiovasc Res. 84(2):326-35 (2009). Briefly, after induction of anesthesia with isoflurane, a 2F balloon catheter was inserted through the left external carotid artery into the common carotid and insufflated three times at 2 atm of pressure. The external carotid artery was then ligated, and blood flow was resumed through the common and internal carotid arteries. For perivascular drug delivery, resveratrol (500 μg) or halofuginone (30 μg) or DMSO dissolved in 200 μL of 25% F127 pluronic gel (Sigma-Aldrich) in PBS was evenly applied, immediately after reestablishment of flow, around the injured segment of the carotid artery (5 animals in each group). The pluronic gel is a biodegradable polymer that is soluble in water at 4° C. but becomes a gel when in contact with tissues at 37° C. (Ji et al., Circ. Res. 100:1579-88 (2007)). Rats were euthanized 14 days after injury, and the common carotid arteries were collected and fixed in 4% paraformaldehyde overnight for embedding in paraffin.
For morphometric analysis of intimal hyperplasia, ten evenly spaced sections through each injured carotid artery were stained using routine hematoxylin and eosin (H&E) and images were collected with light microscopy. Intimal and medial areas and circumference were determined by measuring the internal elastic lamina (IEE) and external elastic lamina (EEL) for each section using the ImageJ software (National Institutes of Health). Kundi et al., Cardiovasc. Res. 84:326-35 (2009); Kingston et al., Circulation 108:2819-25 (2003). The difference in intimal hyperplasia between the compound treatment group and the control group was analyzed with the Student t-test (P<0.05).
To mark endothelial cells, immunohistochemistry using an anti-CD31 antibody was performed on rat carotid sections based on our published methods. Suwanabol et al., Am J Physiol Heart Circ Physiol. 302:H2211-19 (2012); Kundi et al., Cardiovasc. Res. 84:326-35 (2009); Si et al., Arterioscler. Thromb. Vasc. Biol. 32:943-54 (2012). Briefly, the carotid sections were incubated with the anti-CD31 antibody (Santa Cruz Biotechnology) overnight at 4° C., followed by rhodamine-conjugated secondary antibody (DAKO) for 60 minutes at room temperature. Antibody controls included species-matched IgG. Images were taken with a fluorescence microscope.
Balloon angioplasty was performed in the left common carotid artery of male Sprague-Dawley rats. Immediately after resuming the blood flow, idarubicin (110 μg) or DMSO control dissolved in 300 μL of 25% F127 pluronic gel was applied around the injured artery. At 14 days after injury, arteries were collected and cross-sections were prepared and H&E stained. Intimal and medial areas, and circumference were determined by measuring the internal elastic lamina (IEE) and external elastic lamina (EEL) for each section using the ImageJ software. The difference in intimal hyperplasia (ratio of intima to media) between the idarubicin treatment group and the control group was analyzed with the Student t-test (P<0.05). Immunostaining of CD31, an endothelial cell marker, was performed on the sections to assess re-endothelialization.
Using the carotid artery sections collected on day 14 following angioplasty, we performed immunostaining for CD31 (FIGS. 10A-C), a commonly used marker for assessment of the endothelium, in a rat carotid injury model at 14 days. Briefly, a goat anti-CD31 primary antibody (R&D Sytems, 1:150) was incubated with the sections for 1 hour followed by an incubation with a biotinylated rabbit-anti-goat secondary antibody for 30 minutes. Immunostaining of CD31 was then visualized by using streptavidin-HRP and DAB.
This is another data set of the same source.

Data set [4] has as its system primary human aortic smooth muscle cells (HuAoSMCs). The data set is described as follows: AlamarBlue cell viability assay of HuAoSMC proliferation (automated HTS). The format is cell-based. From the text:
Alamar Blue was purchased from Invitrogen (Carlsbad, Calif.). Cell Titer Glo was from Promega (Madison, Wis.). Primary human aortic smooth muscle cells (HuAoSMCs) and primary human aortic endothelial cells (HuAoECs) at passage 3 were purchased from Lonza; their respective optimal culture media (SmGM-2 and EGM-2) were from the same commercial source. Cells were used at passage 5 after expansion. Trypsin/EDTA solution was from Clonetics (Walkersville, Md.); and DPBS was from Gibco (Invitrogen, Carlsbad, Calif.). Microtiter tissue 96-well culture plates with transparent flat-bottoms and black-walled sides were from Costar (Corning, N.Y.). Resveratrol and idarubicin were products of Sigma-Aldrich (St. Louis, Mo.). […]
Freshly collected HuAoSMCs (passage 5) were counted ([…]) by Cellometer AutoT4 (Nexelon Bioscience), and dispensed using Microflo Select (BioTek) to a final density of 2700 cells/[…]/well in the SmGM-2 medium in a 96-well plate. […] Cell growth/proliferation was monitored by reading fluorescence from the AlamarBlue® cell viability reagent (Invitrogen). […] After incubation with resveratrol for 72 hours, AlamarBlue reagent was added using Matrix Hydra (Thermo-Fisher) and incubated with cells for another 24 hours, and fluorescence was then determined using a Safir2 plate reader (Tecan, excitation/fluorescence: 530 nm/590 nm, bandwidth: 15 nm). […]
Background: Resazurin is reduced to fluorescent resorufin, in cell work by metabolically active cells.

Where [5] appears, read: relative to controls not contacted to idarubicin formulation.
The mark [6] stands for this setting: medium dose 0.5 mg/mL in pluronic gel.
The mark [7] stands for this setting: Example 5, local perivascular application, day 14 following angioplasty, 5 rats.
The mark [8] stands for this setting: idarubicin applied locally around injured artery, day 14.
[9] abbreviates: halofuginone 30 μg in 200 μL pluronic gel, 14 days.

“Also recorded” adds a separate entry of the source. Some results are limits rather than exact numbers.

As for `CO[C@H]1C[C@@H]2CC[C@@H](C)[C@@](O)(O2)C(=O)C(=O)N2CCCC[C@H]2C(=O)O[C@H]([C@H](C)C[C@@H]2CC[C@@H](O)[C@H](OC)C2)CC(=O)[C@H](C)/C=C(\C)[C@@H](O)[C@@H](OC)C(=O)[C@H](C)C[C@H](C)/C=C/C=C/C=C/1C` [Rapamycin], the inhibition at 0.2 µM with human SMCs and with human ECs was over 50% throughout.

For `CC(=O)[C@]1(O)Cc2c(O)c3c(c(O)c2[C@@H](O[C@H]2C[C@H](N)[C@H](O)[C@H](C)O2)C1)C(=O)c1ccccc1C3=O` [idarubicin, (7S,9S)-9-Acetyl-7-[(3-amino-2,3,6-trideoxy-α-L-lyxo-hexapyranosyl)oxy]-7,8,9,10-tetrahydro-6,9,11-trihydroxy-5,12-naphtacenedione], the “SMC versus EC proliferation, dose response (in words)” value with HuAoSMCs (approximately 50 nM to 1000 nM) is given as “impedes SMC proliferation to a significantly greater extent than ECs; also recorded: differentially inhibited SMC proliferation with a lesser effect on ECs”. The “inhibition of smooth muscle cell proliferation” value in the data set on HuAoSMCs (setting [5]) is “up to 80%”. In addition, the “SMC versus EC preference in counter-screen of EC proliferation, in words” value in data set [1] (counter-screen) is “preferentially inhibits SMCs over ECs”. The “inhibition of endothelial cell proliferation” value in data set [1] (setting [5]) is reported as “less than 40%”. Moreover, the “cytotoxicity in surrounding tissues” value in data set [2] (highest dose 1 mg/mL in pluronic gel) was “slight cytotoxicity”; in data set [2] (lowest dose 0.2 mg/mL in pluronic gel), “without showing cytotoxicity”; in data set [2] (setting [6]), “without showing cytotoxicity”. The “inhibition of intimal hyperplasia” value in data set [2] (lowest dose 0.2 mg/mL in pluronic gel (data not shown)) and in data set [2] (setting [6]) was over 70% each time. Further, the “increase of lumen size” value in data set [3] (setting [7]) was determined as 45%. Besides, the “reduction of intimal hyperplasia” value in data set [3] (setting [7]) came to 80%; in data set [3] (local application, dose not stated at the place (Example 3)) it was 70%. Further, the “effect on intimal hyperplasia (intima/media), in words” value in data set [3] (setting [8]) was “effectively reduced; also recorded: inhibitory effect; also recorded: inhibits intimal hyperplasia in a dose-dependent manner”. The “effect on re-endothelialization (CD31 staining), in words” value in data set [3] (setting [8]) is “not affected; also recorded: absence of idarubicin's effect; also recorded: preserves and promotes re-endothelialization; also recorded: no substantial impairment; also recorded: no significant effect”.

Turning to `Oc1ccc(C=Cc2cc(O)cc(O)c2)cc1` [resveratrol], in data set [4], the “SMC growth in cell assays, in words” value is reported as “inhibit SMC growth”. Further, the “inhibition of the intima/media ratio” value in data set [3] (resveratrol 500 μg in 200 μL pluronic gel, perivascular, 14 days after injury) worked out at 84%.

Regarding `O=C(CC1NCCCC1O)Cn1cnc2cc(Br)c(Cl)cc2c1=O` (stereo not shown) [halofuginone], in data set [4], the “SMC growth in cell assays, in words” value is “inhibit SMC growth”. In addition, in data set [3] (setting [9]), the “effect on intimal hyperplasia, in words” value is on record as “inhibits intimal hyperplasia” and the “effect on re-endothelialization (CD31 staining), in words” value is recorded as “not re-endothelialization; also recorded: not affected”. Moreover, the “reduction of intimal hyperplasia (intima/media ratio)” value in data set [3] (halofuginone 30 μg in 200 μL pluronic gel, periadventitial, 14 days after injury) turned out to be 74%.
